This note sets out measurements from the supplement of paper PMC11061612.

Holding throughout (assay): combination Emax (second highest fraction inhibited in the dose matrix, 72 h); higher = more inhibition; extreme values may be limits of the assay
One test concerns PEO1 (Ovarian Carcinoma). The method in brief:
(§1)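 Bliss excess equals the observed combination effect minus the expected value EA + EB − EA·EB, where EA and EB are the effects of each agent alone. Combination Emax is the second-highest inhibition within the matrix. Inhibition was scaled from CellTiter-Glo 2.0 luminescence, with 0 set by vehicle wells and 1 by blank wells, after 72 hours of two-drug dosing of cells plated in 1536-well plates.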

For test [1], the system named is JIMT-1 (Breast Carcinoma). The method in brief:
as §1

For test [2], the system named is NCI-H716 (Colorectal Carcinoma). The method in brief:
as §1

For test [3], the system named is CGTH-W-1 (Thyroid Gland Carcinoma). The method in brief: as §1
A further test deals with COLO-792 (Melanoma). The method in brief:
as §1

For the next test, the system named is EB2 (Burkitt's Lymphoma). The method in brief: as §1
In test [4] the test system is HCC1428 (Breast Carcinoma). The method in brief: as §1
Test [5] relates to NCI-H2228 (Lung Adenocarcinoma). The procedure, abridged:
as §1

For the next test, the system named is NB13 (Neuroblastoma). The procedure, abridged:
as §1

Another test relates to A101D (Melanoma). The procedure, abridged:
as §1

For test [6], the system named is GA-10 (Burkitt's Lymphoma). The procedure, abridged:
as §1

For a further test, the system named is EW-7 (Ewing's Sarcoma). The method in brief:
as §1

Test [7] deals with Jurkat (T-Lymphoblastic Leukemia). The method in brief:
as §1

The test system of another test is WM1552C (Melanoma). The procedure, abridged: as §1
Test [8] deals with UACC-812 (Breast Carcinoma). The procedure, abridged:
as §1

Test [9] deals with KYSE-140 (Esophageal Squamous Cell Carcinoma). The procedure, abridged:
as §1

The subject of test [10] is MDA-MB-436 (Breast Carcinoma). The method in brief:
as §1

Test [11] concerns JHU-022 (Oral Cavity Carcinoma). The procedure, abridged: as §1
Another test relates to KP-N-YN (Neuroblastoma). The method in brief:
as §1

For test [12], the system named is OACp4C (Esophageal Adenocarcinoma). The method in brief:
as §1

On to `Cc1c2c(nn1C)CSCc1cc(n(C)n1)CSc1cc(c3ccccc3c1)OCCCc1c(C(=O)O)n(C)c3c-2c(Cl)ccc13` [AZD5991] + CC1(C)CCC(CN2CCN(c3ccc(C(=O)NS(=O)(=O)c4ccc(NCC5CCOCC5)c([N+](=O)[O-])c4)c(Oc4cnc5[nH]ccc5c4)c3)CC2)=C(c2ccc(Cl)cc2)C1 [Venetoclax] (first compound max 1 µM, 7x7, partner max 1 µM), for which the “combination Emax” value came to 0.164 in the test on PEO1 (Ovarian Carcinoma); 0.215 in [1]; 0.176 in test [2]; 0.257 in [3]; 0.997 in the test on COLO-792 (Melanoma); 0.332 in the test on EB2 (Burkitt's Lymphoma). Also, the “combination Emax” value in test [4] was found to be 0.987; in test [5] it was 0.184; with NB13 (Neuroblastoma) it was 0.546; with A101D (Melanoma), 0.989; in test [6], 0.64; in the test with EW-7 (Ewing's Sarcoma) it was 0.487. Also, the “combination Emax” value was 0.888 in test [7]; 0.735 in the test on WM1552C (Melanoma); 0.694 in test [8]; 0.485 in [9]; 0.0835 in test [10]; 0.116 in [11]. Further, the “combination Emax” value in the test on KP-N-YN (Neuroblastoma) was determined as 0.817; in [12], 0.74.

With `Cc1c2c(nn1C)CSCc1cc(n(C)n1)CSc1cc(c3ccccc3c1)OCCCc1c(C(=O)O)n(C)c3c-2c(Cl)ccc13` [AZD5991] + CN(C)CCCOc1ccc(-c2ccc3ncc4c(c3c2)n(C2CCOCC2)c(=O)n4C)cn1 [AZD0156] (first compound max 1 µM, 7x7, partner max 1 µM), the “combination Emax” value in the test on PEO1 (Ovarian Carcinoma) was 0.15; in [1], 0.225; in [2], 0.294; in test [3], 0.19; with COLO-792 (Melanoma) it was 1; in the test on EB2 (Burkitt's Lymphoma), 0.42. Also, the “combination Emax” value in test [4] turned out to be 0.961; in [5], 0.307; in the test on NB13 (Neuroblastoma), 0.282; in the test on A101D (Melanoma), 1; in [6], 0.776; in the test with EW-7 (Ewing's Sarcoma) it was 0.376. The “combination Emax” value is 0.928 in [7]; 0.76 with WM1552C (Melanoma); 0.491 in [8]; 0.488 in [9]; 0.167 in test [10]; 0.172 in [11]. Moreover, the results for the “combination Emax” value (in the test with KP-N-YN (Neuroblastoma); in test [12]) were 0.252 and 0.469, respectively.

For the compound `Cc1c2c(nn1C)CSCc1cc(n(C)n1)CSc1cc(c3ccccc3c1)OCCCc1c(C(=O)O)n(C)c3c-2c(Cl)ccc13` [AZD5991] + C[C@@H]1COCCN1C2=NC(=NC(=C2)C3(CC3)[S@](=N)(=O)C)C4=C5C=CNC5=NC=C4 [AZD6738] (first compound max 1 µM, 7x7, partner max 10 µM), the “combination Emax” value is 0.522 with PEO1 (Ovarian Carcinoma); 0.723 in test [1]; 0.574 in test [2]; 0.389 in test [3]; 1 in the test with COLO-792 (Melanoma); 0.8 in the test with EB2 (Burkitt's Lymphoma). The “combination Emax” value in [4] stood at 0.974; in test [5], 0.433; in the test on NB13 (Neuroblastoma), 0.952; in the test with A101D (Melanoma) it was 1; in test [6], 0.998; in the test on EW-7 (Ewing's Sarcoma), 0.998. Further, the “combination Emax” value in test [7] stood at 0.974; in the test on WM1552C (Melanoma) it was 0.836; in test [8], 0.674; in [9] it was 0.925; in test [10], 0.334; in test [11], 0.492. Also, the “combination Emax” value in the test on KP-N-YN (Neuroblastoma) amounted to 0.968; in [12], 0.851.

On to `Cc1c2c(nn1C)CSCc1cc(n(C)n1)CSc1cc(c3ccccc3c1)OCCCc1c(C(=O)O)n(C)c3c-2c(Cl)ccc13` [AZD5991] + C[C@@H](Nc1cc(F)cc(F)c1)c1cc(C(=O)N(C)C)cc2c(=O)cc(N3CCOCC3)oc12 [AZD8186] (first compound max 1 µM, 7x7, partner max 3 µM), for which the “combination Emax” value was determined as 0.257 in the test on PEO1 (Ovarian Carcinoma); 0.304 in [1]; 0.265 in test [2]; 0.319 in test [3]; 0.999 in the test with COLO-792 (Melanoma); 0.467 in the test with EB2 (Burkitt's Lymphoma). For the same compound, the “combination Emax” value in [4] was 0.964; in [5] it was 0.321; with NB13 (Neuroblastoma), 0.331; with A101D (Melanoma), 0.952; in [6] it was 0.869; with EW-7 (Ewing's Sarcoma), 0.3. The “combination Emax” value amounted to 0.913 in test [7]; 0.77 with WM1552C (Melanoma); 0.649 in [8]; 0.332 in test [9]; 0.358 in [10]; 0.398 in [11]. Also, the “combination Emax” value in the test with KP-N-YN (Neuroblastoma) worked out at 0.171; in test [12] it was 0.664.

As for `Cc1c2c(nn1C)CSCc1cc(n(C)n1)CSc1cc(c3ccccc3c1)OCCCc1c(C(=O)O)n(C)c3c-2c(Cl)ccc13` [AZD5991] + Cc1cc2ncnn2cc1Nc1ncc2c(n1)n(C1CCOCC1)c(=O)n2C [AZD7648] (first compound max 1 µM, 7x7, partner max 10 µM), the “combination Emax” value with PEO1 (Ovarian Carcinoma) was 0.178; in test [1], 0.255; in test [2], 0.228; in [3], 0.181; with COLO-792 (Melanoma), 1; with EB2 (Burkitt's Lymphoma), 0.465. Further, the “combination Emax” value is 0.977 in test [4]; 0.354 in test [5]; 0.245 in the test on NB13 (Neuroblastoma); 0.997 in the test with A101D (Melanoma); 0.851 in test [6]; 0.652 with EW-7 (Ewing's Sarcoma). Further, the “combination Emax” value in [7] was 0.951; in the test on WM1552C (Melanoma), 0.71; in test [8], 0.488; in test [9], 0.401; in test [10], 0.226; in [11], 0.245. Besides, the “combination Emax” value was determined as 0.228 in the test with KP-N-YN (Neuroblastoma) and 0.485 in [12].

Regarding `Cc1c2c(nn1C)CSCc1cc(n(C)n1)CSc1cc(c3ccccc3c1)OCCCc1c(C(=O)O)n(C)c3c-2c(Cl)ccc13` [AZD5991] + Cn1cnc2c(F)c(Nc3ccc(Br)cc3Cl)c(C(=O)NOCCO)cc21 [Selumetinib] (first compound max 1 µM, 7x7, partner max 3 µM), the “combination Emax” value with PEO1 (Ovarian Carcinoma) was determined as 0.25; in test [1], 0.284; in test [2], 0.515; in [3] it was 0.181; with COLO-792 (Melanoma) it was 1; in the test on EB2 (Burkitt's Lymphoma) it was 0.212. Moreover, the “combination Emax” value came to 0.977 in test [4]; 0.249 in test [5]; 0.263 in the test on NB13 (Neuroblastoma); 1 with A101D (Melanoma); 0.751 in test [6]; 0.271 in the test with EW-7 (Ewing's Sarcoma). The “combination Emax” value worked out at 0.927 in test [7]; 0.884 in the test on WM1552C (Melanoma); 0.579 in test [8]; 0.439 in [9]; 0.152 in [10]; 0.398 in test [11]. In addition, the “combination Emax” value in the test on KP-N-YN (Neuroblastoma) stood at 0.204; in [12] it was 0.835.

For `C[C@@H]1COCCN1c1cc(C2([S@](C)(=N)=O)CC2)nc(-c2ccnc3[nH]ccc23)n1` [AZD6738] + O=C(c1cc(Cc2n[nH]c(=O)c3ccccc23)ccc1F)N1CCN(C(=O)C2CC2)CC1 [Olaparib] (first compound max 10 µM, 7x7, partner max 10 µM), the “combination Emax” value in the test with PEO1 (Ovarian Carcinoma) was determined as 0.585; in test [1], 0.598; in test [2], 0.468; in [3] it was 0.386; in the test with COLO-792 (Melanoma), 0.278; in the test on EB2 (Burkitt's Lymphoma), 0.813. The “combination Emax” value is 0.261 in test [4]; 0.523 in test [5]; 0.947 in the test with NB13 (Neuroblastoma); 0.661 in the test on A101D (Melanoma); 0.942 in test [6]; 0.929 in the test on EW-7 (Ewing's Sarcoma). Further, the “combination Emax” value amounted to 0.965 in test [7]; 0.679 in the test with WM1552C (Melanoma); 0.351 in test [8]; 0.744 in [9]; 0.349 in test [10]; 0.563 in test [11]. Moreover, the “combination Emax” value with KP-N-YN (Neuroblastoma) turned out to be 0.76; in [12], 0.71.
